Common to all, as to assay type: in vivo
The test system of one data set is Apple (jonagold). Kind of data set: Test Example 5: phytotoxicity test on field crops. The settings on record: 20% wettable powder, degree of dilution 1000, 0.4 liters/m^2, 14 days after spraying. On the procedure:
(§1) The 20% wettable powders obtained in formulation example 2 were diluted to a predetermined degree and sprayed onto crops in a field in an amount of 0.4 liters/m^2. In a predetermined period after spraying, the development of phytotoxicity was observed by the naked eye. As test compounds, test compounds A, B and C above were used.

A further data set has as its system Pear (hosui). Kind of data set: Test Example 5: phytotoxicity test on field crops. The settings on record: 20% wettable powder, degree of dilution 2000, 0.4 liters/m^2, 21 days after spraying. On the procedure: as §1
The test system of the next data set is Apple (fuji). Kind of data set: Test Example 5: phytotoxicity test on field crops. The settings on record: 20% wettable powder, degree of dilution 1000, 0.4 liters/m^2, 27 days after spraying. On the procedure: as §1
A further data set concerns Orange (iyo). Kind of data set: Test Example 5: phytotoxicity test on field crops. As to conditions: 20% wettable powder, degree of dilution 1000, 0.4 liters/m^2, 40 days after spraying. How it is done:
as §1

The next data set concerns Tea (yabukita). Kind of data set: Test Example 5: phytotoxicity test on field crops. As to conditions: 20% wettable powder, degree of dilution 1000, 0.4 liters/m^2, 21 days after spraying. On the procedure:
as §1

A further data set relates to Grape (pione). Briefly: Test Example 5: phytotoxicity test on field crops. As to conditions: 20% wettable powder, degree of dilution 2000, 0.4 liters/m^2, 28 days after spraying. On the procedure: as §1
In data set [1] the test system is two-spotted spider mites. Kind of data set: Test Example 3: miticidal test on two-spotted spider mites at low concentration. The settings on record: 20 ppm emulsifiable concentrate, 2 ml sprayed on leaf with 30 female adults; counted 2 days later. On the procedure: • Test compound A: Compound No. 1 in table 3 (the compound of the invention). • Test compound B: Compound No. 2 in table 3 (the compound of the invention). • Test compound C: Compound No. 10 in table 3 (the compound of the invention). • Test compound D: Intermediate No. II-25 disclosed in table 2 on page 101 of Japanese Unexamined Patent Publication No. 158137/1999. (2) Preparation of Emulsifiable Concentrate
Emulsifiable concentrates were prepared by adding the test compound, acetone and Sorpol 355 (surfactant) to distilled water. These emulsions were set to contain acetone in the proportion of 5 wt. % and Sorpol 355 in the proportion of 0.01 wt. %. The concentration of the test compound was set at 20 ppm.
2 ml of each emulsifiable concentrate prepared above was sprayed onto a piece of a kidney bean leaf (2×4 cm) with 30 female adults of two-spotted spider mites. After being air-dried, the leaf was placed in a thermostatic chamber having a temperature of 25±1° C. The number of live and dead mites was counted 2 days later. The mortality rate was calculated using the following equation: Mortality rate={1−(survival rate in treated area)/(survival rate in untreated area)}×100

The subject of data set [2] is two-spotted spider mites. Kind of data set: Test Example 4: residual miticidal test on two-spotted spider mites (sprayed kidney bean plant). As to conditions: 200 ppm, 30 ml sprayed on kidney bean plant, counted 2 days later; for Adjusted mortality rate (%) 3 days after spraying: mites introduced 3 days after spraying; for Adjusted mortality rate (%) 5 days after spraying: mites introduced 5 days after spraying. How it is done: • Test compound A: Compound No. 1 in table 3 (the compound of the invention). • Test compound B: Compound No. 2 in table 3 (the compound of the invention). • Test compound C: Compound No. 10 in table 3 (the compound of the invention). • Test compound E: Compound No. a-683 disclosed in table 1-a on page 81 of Japanese Unexamined Patent Publication No. 158137/1999. (2) Preparation of Emulsifiable Concentration
Emulsifiable concentrates were prepared by adding the test compound, acetone and Sorpol 355 (surfactant) to distilled water. These emulsions were set to contain acetone in the proportion of 5 wt. % and Sorpol 355 in the proportion of 0.01 wt. %. The concentration of the test compound was set at 200 ppm.
30 ml of each emulsifiable concentrate prepared above was sprayed onto a kidney bean plant (at the stage of true leaf growth) in a 9-cm pot, and air-dried. The pot was placed in a glass greenhouse. Each of the first and second leaves was cut into a piece having a size of 3×5 cm, and 15 female adults of two-spotted spider mite were introduced thereto after 3 and 5 days of the spraying. Those pieces of leaves were placed in a thermostatic chamber having a temperature of 25±1° C. The number of live and dead mites was counted 2 days later. The mortality rate thereof was calculated in the same manner as in test example 3 above.

The subject of data set [3] is rice plants, cucumbers, cabbages, spinaches, lettuces, tomatoes, leeks, carrots or kidney bean plants. Kind of data set: Test Example 6: phytotoxicity test. As to conditions: 0.2 liters/m^2. On the procedure: As test compounds, test compounds A, B and C above were used. The 20% wettable powders prepared in formulation example 2 were diluted 500 and 1,000 times. These diluted wettable powders were sprayed onto rice plants, cucumbers, cabbages, […], lettuces, tomatoes, leeks, carrots or kidney bean plants in an amount of 0.2 liters/m^2. The development of phytotoxicity was examined by the naked eye 7 and 14 days after the spraying. […] Further, 20% wettable powders using test compound B were diluted 50, 100 and 200 times, and sprayed onto cucumbers, cabbages, leeks or carrots in an amount of 0.2 liters/m^2. The development of phytotoxicity was examined by the naked eye 7 and 14 days after spraying.

Data set [4] has as its system two-spotted spider mites. Briefly: whole plant or invertebrate. As to conditions: 48 h; 200 ppm sprayed onto kidney bean leaves; after 2 days; read-out: mortality rate of the two-spotted spider mites. An excerpt:
A piece of non-woven fabric (4.5×5.5 cm) was suspended inside a plastic cup through an incision made in the lid of the plastic cup. After water was poured into the cup, the cup was covered with the lid. A kidney bean leaf (about 3.5×4.5 cm) was then placed on the sufficiently soaked, non-woven fabric. Another kidney bean leaf with two-spotted spider mites (about 30 mite samples) was placed on top of the first leaf, and the fabric and leaves were placed in a thermostatic chamber having a temperature of 25±2° C. and a humidity of 40%.
Miticidal formulations containing the compound of the invention (200 ppm) were prepared by adding an aqueous solution (100 ppm) of Sorpol 355 (manufactured by Toho Kagaku Co., Ltd.) to a methanol solution of the compound of the invention.
These miticidal formulations were sprayed onto the leaves, and the leaves were air-dried and placed in a thermostatic chamber (25±2° C., humidity 50%). The mortality rate of the two-spotted spider mites was calculated after 2 days.

A further data set has as its system Orange (mandarin). Kind of data set: Test Example 5: phytotoxicity test on field crops. The settings on record: 20% wettable powder, degree of dilution 1000, 0.4 liters/m^2, 40 days after spraying. On the procedure:
as §1

The test system of the next data set is Orange (sour orange). Briefly: Test Example 5: phytotoxicity test on field crops. As to conditions: 20% wettable powder, degree of dilution 400, 0.4 liters/m^2, 40 days after spraying. How it is done: as §1
For another data set, the system named is Eggplant (senryo). Briefly: Test Example 5: phytotoxicity test on field crops. As to conditions: 20% wettable powder, degree of dilution 1000, 0.4 liters/m^2, 14 days after spraying. How it is done: as §1
Where [5] appears, read: 20% wettable powders diluted 500 and 1,000 times, nine plant kinds, 7 and 14 days after the spraying.

SMILES strings stand for the structures. Where only a bound is given, the exact number is not on record here.

Consider `COC(=O)C(C#N)(C(=O)c1ccccc1C(F)(F)F)c1ccc(C(C)(C)C)cc1` (racemic) [Compound No. 1], for which the Phytotoxicity result in the data set with Apple (jonagold), in the data set on Pear (hosui), in the data set on Apple (fuji), in the data set on Orange (iyo), in the data set with Tea (yabukita) and with Grape (pione) was “None” each time. Besides, in the data set with two-spotted spider mites [1], the mortality rate is 100%. The “Adjusted mortality rate (%) 3 days after spraying” value (“Adjusted mortality rate (%) 3 days” below) with two-spotted spider mites [2] is reported as 100%. The “Adjusted mortality rate (%) 5 days after spraying” value (“Adjusted mortality rate (%) 5 days” below) with two-spotted spider mites [2] was 95%. For the same compound, the development of phytotoxicity entry in data set [3] (setting [5]) was “no development of phytotoxicity was observed”.
With `COC(=O)C(C#N)(C(=O)c1ccccc1C(F)(F)F)c1ccc(Cl)cc1` (centres unmarked) [Compound No. 30, Methyl 2-(4-Chlorophenyl)-2-(2-Trifluoromethylbenzoyl)Cyanoacetate], the mortality at 200 ppm in the data set with two-spotted spider mites [4] was at least 50%.
For `CCOC(=O)C(C#N)(C(=O)c1ccccc1C(F)(F)F)c1ccc(C(C)(C)C)cc1` (racemic) [Compound No. 2], the Phytotoxicity result in the data set on Apple (jonagold), in the data set with Pear (hosui), in the data set with Apple (fuji), in the data set with Orange (iyo), in the data set with Orange (mandarin) and in the data set on Tea (yabukita) was “None” throughout. Further, the Phytotoxicity result in the data set on Orange (sour orange), in the data set with Eggplant (senryo) and in the data set on Grape (pione) was “None” throughout. The same compound returned a mortality rate in the data set with two-spotted spider mites [1] of 100%. Also, in the data set with two-spotted spider mites [2], the “Adjusted mortality rate (%) 3 days” value is recorded as 100%. Further, the “Adjusted mortality rate (%) 5 days” value in the data set on two-spotted spider mites [2] came to 93%. Further, the development of phytotoxicity result in [3] (20% wettable powders diluted 50, 100 and 200 times, cucumbers, cabbages, leeks or carrots, 7 and 14 days after spraying) is reported as “no development of phytotoxicity was observed”; in data set [3] (setting [5]), “no development of phytotoxicity was observed”.
Consider `COCCOC(=O)C(C#N)(C(=O)c1ccccc1C(F)(F)F)c1ccc(C(C)(C)C)cc1` (racemic) [Compound No. 10], for which the Phytotoxicity result in the data set on Apple (jonagold), with Pear (hosui), in the data set with Apple (fuji), in the data set with Orange (iyo), in the data set on Tea (yabukita) and in the data set with Grape (pione) was “None” in each case. In the data set with two-spotted spider mites [1], this compound registered a mortality rate of 100%. For the same compound, in the data set on two-spotted spider mites [2], the “Adjusted mortality rate (%) 3 days” value is given as 100%. For the same compound, the “Adjusted mortality rate (%) 5 days” value in the data set with two-spotted spider mites [2] worked out at 100%. The development of phytotoxicity entry in data set [3] (setting [5]) is recorded as “no development of phytotoxicity was observed”.
